Data reported in patent publication US20030199671A1, “Binding molecules for Fc-region polypeptides” (priority 2001, published 2003).
Positions of bridges follow the written chain, without caps; N, C: chain ends. Residues, ends and D or L forms follow the SMILES beside them.

Key:
[1] = target: T1, human IgG1 (Homo sapiens, UniProt P01857); assay: Column capture out of tobacco extract; assay type: binding; conditions: from tobacco extract, size exclusion HPLC
T1 construct: all human subtypes derived from myeloma patients; purchased Calbiochem 400120; host or cells: myeloma patients
Experimental: The ability of affinity media based on DX253 to capture human Fc and human IgG1 out of tobacco extract was evaluated in separate experiments. The tobacco extract used was a representative concentration blank lot (CropTech, lot NV100-136). Human Fc or IgG1 was spiked into the tobacco extract at 50 μg/ml. 100 μg (2 ml) was loaded onto a 350 μl column packed the DX253 media at 200 μl/min. (170 cm/hr.). Prior to loading, the column had been equilibrated with 50 mM Tris buffer containing 150 mM NaCl and 0.01% Tween 20, pH 7.3 (TBST, pH 7.3). After loading, the column was washed with 50 mM Tris buffer containing 1M NaCl, pH 7.3 followed by elution with 30 mM H3PO4, 150 mM NaCl, pH 2.0. The column was then cleaned with 0.1 M CAPS, pH 11.5 and separately with 30% isopropanol, 5% acetic acid in water, ˜pH 2.7. Collected fractions were neutralized immediately with 2M Tris, pH 8, prior to analysis by size exclusion HPLC.

[2] = system: polyclonal human IgG; assay: DX253 column re-use: total dynamic binding capacity
Experimental: DX253 peptide was immobilized onto NHS-activated 4 Fast Flow to a ligand density of 2.9 μmole/ml as determined by quantitative amino acid analysis. This affinity resin was packed into a 4.6 mm×6 cm (internal diam.×length, 1.0 ml bed volume) PEEK column (Isolation Technologies, Inc., 5050IP-08046-006-20).
To establish total dynamic binding capacity, polyclonal human IgG (ICN, 55908) was prepared in PBS, pH 7.2 containing 0.05% NaN3 at 2.5 mg/ml. A total of 75 mg (30 ml) was loaded at 0.21 ml/minute (75 cm/hr) to capacity (until the absorbance at 280 nm of the load was equivalent to that of the column flowthrough). Fractions were collected across the entire run. Unbound IgG was washed to baseline at 0.42 ml/minute (150 cm/hour) with PBS, pH 7.2. Bound IgG was eluted with 0.1M citrate, pH 3.0 buffer and immediately neutralized with minimal addition of 1M HEPES, pH 9.0 buffer to ˜pH 7.0. […] All post-load wash, elution and cleaning steps were performed at a flow rate of 0.42 ml/minute (150 cm/hour). Total mg IgG bound was determined by measuring the absorbance at 280 nm of the elution fraction calculated using an extinction coefficicent of 1.4. Initial (T=0, prior to initiating column cycling) total dynamic capacity measured 19.8 mg human IgG per ml affinity resin. […] Mass balance recovery for these 5 total capacity determinations averaged 98%. […] The column retained approximately 90% relative performance with respect to total dynamic capacity after 95 cycles.

[3] = target: T2, human plasma IgG1 (Homo sapiens, UniProt P01857); assay: Fluorescence anisotropy binding, fluorescein-labeled peptide
T2 construct: the individual human plasma IgG isoforms: IgG1, IgG2, IgG3, or IgG4; purchased Calbiochem; host or cells: human plasma

[4] = target: IgG4 (Homo sapiens, UniProt P01861); assay: Column capture of human IgG4 from goat IgG in buffer; assay type: binding; parameters: all human subtypes derived from myeloma patients; purchased Calbiochem 400126; host or cells: myeloma patients; conditions: SEC-HPLC; load 99.5% monomer
Experimental: 0.250 mg of hIgG4 (99.5% monomer) was added to 1.0 mg of goat IgG in a total volume of 1.0 ml of PBST, pH 7.2. Thus, 1.0 ml was loaded onto a 350 ul mini-column as described above. The column was washed to baseline with PBST, pH 7.2 and the flowthrough fraction collected. Bound IgG was eluted with 0.1M sodium bicarbonate buffer, pH 9.0 and the column cleaned with 0.1M CAPS, pH 11.5. The eluted and clean fractions were quickly neutralized to pH˜7.2 and assayed for mass recovery by SEC-HPLC. […] The column load, flowthrough, elution and cleaning fractions were further analyzed by electrophoresis (SDS-PAGE), Coomassie stain.

[5] = system: goat IgG; assay: Mini-chromatography column binding (dynamic conditions); conditions: 250 μg target, 170 cm/hr
Experimental: (§1) Thus, 250 μg of target (hIgG1, hIgG2, hIgG3, hIgG4, goat IgG and bovine IgG) at 0.250 mg/ml in PBST, pH 7.2 or TBST, pH 7.3 was loaded onto a 350 μl column (3×50 mm) run at 0.200 ml/min. flowrate (170 cm/hr). Flowthrough, elution and cleaning fractions were collected and assayed for total protein recovery by size-exclusion HPLC. Percentage mass balance was also determined to be 90-100% on average.

[6] = system: bovine IgG; assay: as above; conditions: 250 μg target, 170 cm/hr
Experimental: as §1

[7] = pH 9.3, 0.01 M sodium bicarbonate
[8] = pH 9.3, .01 M sodium bicarbonate, 0.2 M NaCl

T2 sequence (P01857 1-330 isoform P01857-1): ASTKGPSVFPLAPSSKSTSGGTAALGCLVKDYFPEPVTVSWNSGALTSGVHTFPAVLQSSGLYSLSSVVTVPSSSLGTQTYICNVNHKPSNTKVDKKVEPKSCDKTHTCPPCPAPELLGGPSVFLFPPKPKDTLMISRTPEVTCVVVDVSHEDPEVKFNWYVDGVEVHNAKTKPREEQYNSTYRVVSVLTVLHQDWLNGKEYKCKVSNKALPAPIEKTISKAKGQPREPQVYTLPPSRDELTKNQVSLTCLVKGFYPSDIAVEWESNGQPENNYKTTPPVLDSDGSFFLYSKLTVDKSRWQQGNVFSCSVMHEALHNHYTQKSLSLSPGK
Chain of IgG4 (P01861 1-327 isoform P01861-1): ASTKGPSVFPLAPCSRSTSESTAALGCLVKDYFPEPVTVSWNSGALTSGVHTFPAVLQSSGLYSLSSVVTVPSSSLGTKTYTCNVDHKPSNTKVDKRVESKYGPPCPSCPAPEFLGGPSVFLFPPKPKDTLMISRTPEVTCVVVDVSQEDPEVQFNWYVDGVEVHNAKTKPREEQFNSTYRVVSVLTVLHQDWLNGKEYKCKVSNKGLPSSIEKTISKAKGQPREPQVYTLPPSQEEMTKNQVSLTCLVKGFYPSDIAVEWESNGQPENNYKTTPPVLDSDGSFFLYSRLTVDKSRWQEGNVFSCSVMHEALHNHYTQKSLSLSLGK
T1 sequence (P01857 1-330 isoform P01857-1): as the sequence (P01857 1-330 isoform P01857-1) above

Ac-GDRRACSRDWSGALVWCAGHEPGPEGGGK-NH2 (not fully specified (bridges); printed as Ac-GDRRACSRDWSGALVWCAGHEPGPEGGGK-NH2; cysteine pairing not given here) [DX253]
% purity monomeric protein, IgG1 [1]: 89%
Initial total dynamic capacity ([2]; T=0, ligand density 2.9 μmole/ml): 19.8 mg human IgG per ml affinity resin
% Relative Performance (total capacity vs T=0, 19.8 mg/ml) ([2]; Total Capacity Cycle Run No. 0): 100%
% Relative Performance (total capacity vs T=0, 19.8 mg/ml) ([2]; Total Capacity Cycle Run No. 26): 93.9%
% Relative Performance (total capacity vs T=0, 19.8 mg/ml) ([2]; Total Capacity Cycle Run No. 66): 85.9%
% Relative Performance (total capacity vs T=0, 19.8 mg/ml) ([2]; Total Capacity Cycle Run No. 86): 91.4%
% Relative Performance (total capacity vs T=0, 19.8 mg/ml) ([2]; Total Capacity Cycle Run No. 96): 87.9%
Relative performance with respect to total dynamic capacity ([2]; after 95 cycles): approximately 90%

CC(=O)NCC(=O)N[C@@H](CC(=O)O)C(=O)N[C@@H](CC(=O)O)C(=O)N[C@@H](CC(=O)O)C(=O)N[C@@H](Cc1c[nH]cn1)C(=O)N[C@H]1CSSC[C@@H](C(=O)N2CCC[C@H]2C(=O)N[C@@H](Cc2c[nH]cn2)C(=O)NCC(=O)N[C@@H](CCC(=O)O)C(=O)N2CCC[C@H]2C(=O)NCC(=O)N2CCC[C@H]2C(=O)N[C@@H](CCC(=O)O)C(=O)NCC(=O)NCC(=O)NCC(=O)N[C@@H](CCCCN)C(N)=O)NC(=O)[C@H](CCC(=O)O)NC(=O)[C@H](CO)NC(=O)[C@H](CC(N)=O)NC(=O)[C@H](Cc2ccccc2)NC(=O)[C@H](Cc2c[nH]c3ccccc23)NC(=O)[C@H](CCC(=O)O)NC(=O)[C@H](CCCNC(=N)N)NC(=O)[C@H](Cc2ccccc2)NC(=O)[C@H](Cc2c[nH]c3ccccc23)NC(=O)[C@H](Cc2ccc(O)cc2)NC1=O [DX252] (Ac-GDDDHCYWFREWFNSECPHGEPGPEGGGK-NH2; disulfide 6-17 (inferred))
Kd ([3]; pH 7.4, 0.01 M Tris-HCl): 2.1 to 3.4 µM
Kd ([3]; pH 7.4, PBS, […] NaCl): 2.9 ± 1.6 µM
Kd [3, 7]: > 10 µM
Kd [3, 8]: > 10 µM

CC[C@H](C)[C@@H]1NC(=O)[C@H](CC(C)C)NC(=O)[C@H](CCC(=O)O)NC(=O)CNC(=O)[C@H](Cc2c[nH]c3ccccc23)NC(=O)[C@H]([C@@H](C)O)NC(=O)[C@H]([C@@H](C)O)NC(=O)[C@H](Cc2ccc(O)cc2)NC(=O)[C@H](C(C)C)NC(=O)[C@@H](NC(=O)[C@H](CCSC)NC(=O)[C@H](Cc2c[nH]cn2)NC(=O)[C@H](CC(=O)O)NC(=O)[C@H](CC(=O)O)NC(=O)CNC(C)=O)CSSC[C@@H](C(=O)N[C@@H](CC(=O)O)C(=O)N[C@@H](CC(N)=O)C(=O)N[C@@H](Cc2c[nH]cn2)C(=O)N[C@@H](CCC(=O)O)C(=O)N2CCC[C@H]2C(=O)NCC(=O)N2CCC[C@H]2C(=O)N[C@@H](CCC(=O)O)C(=O)NCC(=O)NCC(=O)NCC(=O)N[C@@H](CCCCN)C(N)=O)NC(=O)[C@H](Cc2c[nH]c3ccccc23)NC1=O [DX249] (Ac-GDDHMCVYTTWGELIWCDNHEPGPEGGGK-NH2; disulfide 6-17)
Effect of including 15% ethylene glycol on binding to IgG1 ([3]; 15% ethylene glycol): no observed effect
Kd ([3]; pH 5.7, 0.01 M Tris-acetate, 0 M NaCl): 0.074 ± 0.053 µM
Kd ([3]; pH 5.7, 0.01 M Tris-acetate, […] NaCl): 0.84 ± 0.7 µM
Kd ([3]; pH 7.4, 0.01 M Tris-HCl): 0.4 ± 0.06 µM
Kd ([3]; pH 7.4, PBS, […] NaCl): 2.9 ± 0.9 µM
Kd ([3]; pH 7.4 PBS, […] NaCl, 15% EG): 3.6 ± 2.5 µM
Kd [3, 7]: > 10 µM
Kd [3, 8]: > 10 µM
Monomer in the eluted fraction [4]: 99.5%

Prot. A: immobilized recombinant Protein A (RepliGen Corp., product no. IPA-400), positive control [reference compound]
Binding efficiency, goat IgG [5]: moderate
Binding efficiency, bovine IgG [6]: high
